Results: patent publication US10227344B2, “CK2 inhibitors, compositions and methods thereof” (Polaris Pharmaceuticals, Inc., priority 2016, dated 2019)

What was measured:
Assay type in all cases: cell-based
H2122 = assay: Cancer cell panel, cell viability (resazurin): NSCLC, H2122; details: 72 hours, labelled drug combined with Example 3
Procedure: (§1) Cells were plated in 96-well plates and treated for 72 hours with a serially diluted CK2 inhibitor or anti-cancer drug or their combination. The suspension cell lines were treated right after plating, while the adherent cells were allowed to attach overnight prior to the start of the treatment.
(§2) Cell viability was determined by adding resazurin to cell cultures and measuring fluorescence with a plate reader. Relative cell viability was calculated by dividing the cell viability signal from a test sample by that of a non-treated control. […] Bliss Independence and Highest Single Agent models were used to determine if there is synergy, additivity or antagonism between the CK2 inhibitor and an anti-cancer drug.

WM-115 = assay: Cancer cell panel, cell viability (resazurin): Melanoma, WM-115; details: WM-115 (Melanoma), 72 hours; labelled drug combined with Example 3
ACHN = assay: Cancer cell panel, cell viability (resazurin): Renal, ACHN; details: 72 hours, labelled drug combined with Example 3
Procedure: as §1, §2

U87MG = assay: Cancer cell panel, cell viability (resazurin): Glioblastoma, U87MG; details: 72 hours, labelled drug combined with Example 3
Caki-1 = assay: Cancer cell panel, cell viability (resazurin): Renal, Caki-1; details: Caki-1 (Renal), 72 hours; labelled drug combined with Example 3
Procedure: as §1, §2

T47D = assay: Cancer cell panel, cell viability (resazurin): Breast, T47D; details: 72 hours, labelled drug combined with Example 3
BT-474 = assay: Cancer cell panel, cell viability (resazurin): Breast, BT-474; details: BT-474 (Breast), 72 hours; labelled drug combined with Example 3
Procedure: as §1, §2

Caov-3 = assay: Cancer cell panel, cell viability (resazurin): Ovarian, Caov-3; details: Caov-3 (Ovarian), 72 hours; labelled drug combined with Example 3
Procedure: as §1, §2

HL60 = assay: Cancer cell panel, cell viability (resazurin): Leukemia, HL60; details: 72 hours, labelled drug combined with Example 3
MDA-MB-453 = assay: Cancer cell panel, cell viability (resazurin): Breast, MDA-MB-453; details: MDA-MB-453 (Breast), 72 hours; labelled drug combined with Example 3
LoVo = assay: Cancer cell panel, cell viability (resazurin): Colon, LoVo; details: 72 hours, labelled drug combined with Example 3
Procedure: as §1, §2

SK-MEL-24 = assay: Cancer cell panel, cell viability (resazurin): Melanoma, SK-MEL-24; details: SK-MEL-24 (Melanoma), 72 hours; labelled drug combined with Example 3
Procedure: as §1, §2

MeWO = assay: Cancer cell panel, cell viability (resazurin): Melanoma, MeWO; details: 72 hours, labelled drug combined with Example 3
DLD-1 = assay: Cancer cell panel, cell viability (resazurin): Colon, DLD-1; details: DLD-1 (Colon), 72 hours; labelled drug combined with Example 3
EOL-1 = assay: Cancer cell panel, cell viability (resazurin): Leukemia, EOL-1; details: EOL-1 (Leukemia), 72 hours; labelled drug combined with Example 3
A2780 = assay: Cancer cell panel, cell viability (resazurin): Ovarian, A2780; details: 72 hours, labelled drug combined with Example 3
MDA-MB-157 = assay: Cancer cell panel, cell viability (resazurin): Breast, MDA-MB-157; details: MDA-MB-157 (Breast), 72 hours; labelled drug combined with Example 3
MDA-MB-231 = assay: Cancer cell panel, cell viability (resazurin): Breast, MDA-MB-231; details: MDA-MB-231 (Breast), 72 hours; labelled drug combined with Example 3
H460 = assay: Cancer cell panel, cell viability (resazurin): NSCLC, H460; details: 72 hours, labelled drug combined with Example 3
RPMI8226 = assay: Cancer cell panel, cell viability (resazurin): multiple myeloma, RPMI8226; details: 72 hours, labelled drug combined with Example 3
Procedure: as §1, §2

Ramos = assay: Cancer cell panel, cell viability (resazurin): Burkitt's Lymphoma, Ramos; details: 72 hours, labelled drug combined with Example 3
786-O = assay: Cancer cell panel, cell viability (resazurin): Renal, 786-O; details: 786-O (Renal), 72 hours; labelled drug combined with Example 3
Procedure: as §1, §2

H1975 = assay: Cancer cell panel, cell viability (resazurin): NSCLC, H1975; details: 72 hours, labelled drug combined with Example 3
Raji = assay: Cancer cell panel, cell viability (resazurin): Burkitt's Lymphoma, Raji; details: 72 hours, labelled drug combined with Example 3
Procedure: as §1, §2

H23 = assay: Cancer cell panel, cell viability (resazurin): NSCLC, H23; details: 72 hours, labelled drug combined with Example 3
Procedure: as §1, §2

LnCap = assay: Cancer cell panel, cell viability (resazurin): Prostate, LnCap; details: 72 hours, labelled drug combined with Example 3
Procedure: as §1, §2

U266 = assay: Cancer cell panel, cell viability (resazurin): multiple myeloma, U266; details: 72 hours, labelled drug combined with Example 3
Procedure: as §1, §2

HCT116 = assay: Cancer cell panel, cell viability (resazurin): Colon, HCT116; details: 72 hours, labelled drug combined with Example 3
MOLT4 = assay: Cancer cell panel, cell viability (resazurin): Leukemia, MOLT4; details: 72 hours, labelled drug combined with Example 3

## O=c1[nH]cc(F)c(=O)[nH]1 [Example 5FU, 5-FU]
H2122
  synergy, additivity or antagonism of the combination of Example 3 with the anti-cancer drug: + (Additive relative to each agent alone (CI = 0.9-1 by Bliss Independence Model and <0.9 by Highest Single Agent Model))
WM-115
  synergy, additivity or antagonism of the combination of Example 3 with the anti-cancer drug: + (Additive relative to each agent alone (CI = 0.9-1 by Bliss Independence Model and <0.9 by Highest Single Agent Model))
ACHN
  synergy, additivity or antagonism of the combination of Example 3 with the anti-cancer drug: + (Additive relative to each agent alone (CI = 0.9-1 by Bliss Independence Model and <0.9 by Highest Single Agent Model))
U87MG
  synergy, additivity or antagonism of the combination of Example 3 with the anti-cancer drug: + (Additive relative to each agent alone (CI = 0.9-1 by Bliss Independence Model and <0.9 by Highest Single Agent Model))
Caki-1
  synergy, additivity or antagonism of the combination of Example 3 with the anti-cancer drug: + (Additive relative to each agent alone (CI = 0.9-1 by Bliss Independence Model and <0.9 by Highest Single Agent Model))
T47D
  synergy, additivity or antagonism of the combination of Example 3 with the anti-cancer drug: + (Additive relative to each agent alone (CI = 0.9-1 by Bliss Independence Model and <0.9 by Highest Single Agent Model))
BT-474
  synergy, additivity or antagonism of the combination of Example 3 with the anti-cancer drug: + (Additive relative to each agent alone (CI = 0.9-1 by Bliss Independence Model and <0.9 by Highest Single Agent Model))
Caov-3
  synergy, additivity or antagonism of the combination of Example 3 with the anti-cancer drug: + (Additive relative to each agent alone (CI = 0.9-1 by Bliss Independence Model and <0.9 by Highest Single Agent Model))
HL60
  synergy, additivity or antagonism of the combination of Example 3 with the anti-cancer drug: + (Additive relative to each agent alone (CI = 0.9-1 by Bliss Independence Model and <0.9 by Highest Single Agent Model))
MDA-MB-453
  synergy, additivity or antagonism of the combination of Example 3 with the anti-cancer drug: + (Additive relative to each agent alone (CI = 0.9-1 by Bliss Independence Model and <0.9 by Highest Single Agent Model))
LoVo
  synergy, additivity or antagonism of the combination of Example 3 with the anti-cancer drug: + (Additive relative to each agent alone (CI = 0.9-1 by Bliss Independence Model and <0.9 by Highest Single Agent Model))
SK-MEL-24
  synergy, additivity or antagonism of the combination of Example 3 with the anti-cancer drug: + (Additive relative to each agent alone (CI = 0.9-1 by Bliss Independence Model and <0.9 by Highest Single Agent Model))
MeWO
  synergy, additivity or antagonism of the combination of Example 3 with the anti-cancer drug: − (Slightly antagonistic relative to each agent alone (CI = 1.1-1.2 by Highest Single Agent Model))
DLD-1
  synergy, additivity or antagonism of the combination of Example 3 with the anti-cancer drug: + (Additive relative to each agent alone (CI = 0.9-1 by Bliss Independence Model and <0.9 by Highest Single Agent Model))
EOL-1
  synergy, additivity or antagonism of the combination of Example 3 with the anti-cancer drug: + (Additive relative to each agent alone (CI = 0.9-1 by Bliss Independence Model and <0.9 by Highest Single Agent Model))
A2780
  synergy, additivity or antagonism of the combination of Example 3 with the anti-cancer drug: + + (Slight synergy relative to each agent alone (CI = 0.75-0.9 by Bliss Independence Model))
MDA-MB-157
  synergy, additivity or antagonism of the combination of Example 3 with the anti-cancer drug: + + (Slight synergy relative to each agent alone (CI = 0.75-0.9 by Bliss Independence Model))
MDA-MB-231
  synergy, additivity or antagonism of the combination of Example 3 with the anti-cancer drug: + (Additive relative to each agent alone (CI = 0.9-1 by Bliss Independence Model and <0.9 by Highest Single Agent Model))
H460
  synergy, additivity or antagonism of the combination of Example 3 with the anti-cancer drug: + + + (Synergy relative to each agent alone (CI = 0.4-0.74 by Bliss Independence Model))
RPMI8226
  synergy, additivity or antagonism of the combination of Example 3 with the anti-cancer drug: + (Additive relative to each agent alone (CI = 0.9-1 by Bliss Independence Model and <0.9 by Highest Single Agent Model))
Ramos
  synergy, additivity or antagonism of the combination of Example 3 with the anti-cancer drug: + + (Slight synergy relative to each agent alone (CI = 0.75-0.9 by Bliss Independence Model))
786-O
  synergy, additivity or antagonism of the combination of Example 3 with the anti-cancer drug: + + + (Synergy relative to each agent alone (CI = 0.4-0.74 by Bliss Independence Model))
H1975
  synergy, additivity or antagonism of the combination of Example 3 with the anti-cancer drug: − − (Antagonistic relative to each agent alone (CI = 1.2-1.49 by Highest Single Agent Model))
Raji
  synergy, additivity or antagonism of the combination of Example 3 with the anti-cancer drug: + (Additive relative to each agent alone (CI = 0.9-1 by Bliss Independence Model and <0.9 by Highest Single Agent Model))
H23
  synergy, additivity or antagonism of the combination of Example 3 with the anti-cancer drug: + (Additive relative to each agent alone (CI = 0.9-1 by Bliss Independence Model and <0.9 by Highest Single Agent Model))
LnCap
  synergy, additivity or antagonism of the combination of Example 3 with the anti-cancer drug: + (Additive relative to each agent alone (CI = 0.9-1 by Bliss Independence Model and <0.9 by Highest Single Agent Model))
U266
  synergy, additivity or antagonism of the combination of Example 3 with the anti-cancer drug: + (Additive relative to each agent alone (CI = 0.9-1 by Bliss Independence Model and <0.9 by Highest Single Agent Model))
HCT116
  synergy, additivity or antagonism of the combination of Example 3 with the anti-cancer drug: + + (Slight synergy relative to each agent alone (CI = 0.75-0.9 by Bliss Independence Model))
MOLT4
  synergy, additivity or antagonism of the combination of Example 3 with the anti-cancer drug: + + (Slight synergy relative to each agent alone (CI = 0.75-0.9 by Bliss Independence Model))
